# Measured values from patent publication US20040028744A1, “Mucoadhesive composition” (priority 2002, published 2004).
# Experiment: Solubility of benzocaine in ethyl alcohol with and without menthol
# Assay type: physicochemical
# From the text: While not wishing to be bound to any theory, it appears that, in embodiments containing the medicament, for example benzocaine, menthol improves the clarity of the composition by increasing the solubility of medicament in the gel composition. This belief is based on the observation that the solubility of benzocaine in ethyl alcohol containing menthol is higher than the solubility of benzocaine in ethyl alcohol without menthol. It is believed that menthol can enhance the interaction between polymethacrylate, such as Eudragit™ RS, and a medicament, such as benzocaine. This belief is based on an interaction study conducted with a Differential Scanning Calorimeter (DSC). Further, while not wishing to be bound to any theory, it appears that one or both of the polymers may be forming a complex with the medicament drug in the presence of menthol and enhancing the clarity of the composition.
structure (smiles),measurement,value
CCOC(=O)c1ccc(N)cc1 [benzocaine],solubility of benzocaine in ethyl alcohol containing menthol versus without menthol,higher
